Test results: ChEMBL document CHEMBL1153480, “Study on the potential anti-cancer activity of phosphonium and ammonium-based ionic liquids” (2009)

How the values were obtained:
Format in all cases: functional
SNB-75 [1] = test: cells; settings: Homo sapiens
Description: Growth inhibition of human SNB75 cells assessed as drug level required for 50% reduction in net protein increase by SRB assay relative to control

U-251 [2] = test: cells; settings: Homo sapiens
Description: Growth inhibition of human U251 cells assessed as drug level required for 50% reduction in net protein increase by SRB assay relative to control

LOX IMVI [3] = test: cells; settings: Homo sapiens
Description: Growth inhibition of human LOXIMVI cells assessed as drug level required for 50% reduction in net protein increase by SRB assay relative to control

M14 = test: cells; settings: Homo sapiens
Description: Growth inhibition of human M14 cells assessed as drug level required for 50% reduction in net protein increase by SRB assay relative to control

SK-MEL-2 = test: cells; settings: Homo sapiens
Description: Growth inhibition of human SK-MEL-2 cells assessed as drug level required for 50% reduction in net protein increase by SRB assay relative to control

SK-MEL-28 [4] = test: cells; settings: Homo sapiens
Description: Growth inhibition of human SK-MEL-28 cells assessed as drug level required for 50% reduction in net protein increase by SRB assay relative to control

UACC-257 [5] = test: cells; settings: Homo sapiens
Description: Growth inhibition of human UACC257 cells assessed as drug level required for 50% reduction in net protein increase by SRB assay relative to control

IGROV-1 = test: cells; settings: Homo sapiens
Description: Growth inhibition of human IGROV1 cells assessed as drug level required for 50% reduction in net protein increase by SRB assay relative to control

OVCAR-3 [6] = test: cells; settings: Homo sapiens
Description: Growth inhibition of human OVCAR-3 cells assessed as drug level required for 50% reduction in net protein increase by SRB assay relative to control

OVCAR-5 [7] = test: cells; settings: Homo sapiens
Description: Growth inhibition of human OVCAR5 cells assessed as drug level required for 50% reduction in net protein increase by SRB assay relative to control

OVCAR-8 [8] = test: cells; settings: Homo sapiens
Description: Growth inhibition of human OVCAR8 cells assessed as drug level required for 50% reduction in net protein increase by SRB assay relative to control

786-0 [9] = test: cells; settings: Homo sapiens
Description: Growth inhibition of human 786-0 cells assessed as drug level required for 50% reduction in net protein increase by SRB assay relative to control

A498 = test: cells; settings: Homo sapiens
Description: Growth inhibition of human A498 cells assessed as drug level required for 50% reduction in net protein increase by SRB assay relative to control

SN12C [10] = test: cells; settings: Homo sapiens
Description: Growth inhibition of human SN12C cells assessed as drug level required for 50% reduction in net protein increase by SRB assay relative to control

PC-3 [11] = test: cells; settings: Homo sapiens
Description: Growth inhibition of human PC3 cells assessed as drug level required for 50% reduction in net protein increase by SRB assay relative to control

NCI/ADR-RES [12] = test: cells; settings: Homo sapiens
Description: Growth inhibition of human NCI/ADR-RES cells assessed as drug level required for 50% reduction in net protein increase by SRB assay relative to control

MDA-MB-231 = test: cells; settings: Homo sapiens
Description: Growth inhibition of human MDA-MB-231 cells assessed as drug level required for 50% reduction in net protein increase by SRB assay relative to control

MOLT-4 [13] = test: Cytotoxicity against human MOLT4 cells by SRB assay; settings: read-out: LC50 (the source's name)
A549 [14] = test: Cytotoxicity against human A549 cells by SRB assay; settings: read-out: LC50 (the source's name)
NCI-H23 [15] = test: Cytotoxicity against human NCI-H23 cells by SRB assay; settings: read-out: LC50 (the source's name)
NCI-H460 [16] = test: Cytotoxicity against human NCI-H460 cells by SRB assay; settings: read-out: LC50 (the source's name)
COLO 205 [17] = test: Cytotoxicity against human COLO205 cells by SRB assay; settings: read-out: LC50 (the source's name)
HCC 2998 [18] = test: Cytotoxicity against human HCC2998 cells by SRB assay; settings: read-out: LC50 (the source's name)
HT-29 = test: Cytotoxicity against human HT-29 cells by SRB assay; settings: read-out: LC50 (the source's name)
SW-620 [19] = test: Cytotoxicity against human SW620 cells by SRB assay; settings: read-out: LC50 (the source's name)
SF-268 = test: Cytotoxicity against human SF268 cells by SRB assay; settings: read-out: LC50 (the source's name)
SF-295 [20] = test: Cytotoxicity against human SF295 cells by SRB assay; settings: read-out: LC50 (the source's name)
SNB-19 = test: Cytotoxicity against human SNB19 cells by SRB assay; settings: read-out: LC50 (the source's name)
SK-MEL-28 [21] = test: Cytotoxicity against human SK-MEL-28 cells by SRB assay; settings: read-out: LC50 (the source's name)
786-0 [22] = test: cells; settings: Homo sapiens, read-out: LC50 (the source's name)
Description: Cytotoxicity against human 786-0 cells by SRB assay

SN12C [23] = test: cells; settings: Homo sapiens; remark: listed apart in the source
Description: Growth inhibition of human SN12C cells assessed as cell growth at 10 uM by SRB assay

PC-3 [24] = test: cells; settings: Homo sapiens; remark: listed apart in the source
Description: Growth inhibition of human PC3 cells assessed as cell growth at 10 uM by SRB assay

NCI/ADR-RES [25] = test: cells; settings: Homo sapiens; remark: listed apart in the source
Description: Growth inhibition of human NCI/ADR-RES cells assessed as cell growth at 10 uM by SRB assay

MDA-MB-435 [26] = test: cells; settings: Homo sapiens
Description: Growth inhibition of human MDA-MB-435 cells assessed as cell growth at 10 uM by SRB assay

HCT-15 = test: cells; settings: Homo sapiens
Description: Growth inhibition of human HCT15 cells assessed as drug level required for 50% reduction in net protein increase by SRB assay relative to control

COLO 205 [27] = test: cells; settings: Homo sapiens
Description: Growth inhibition of human COLO205 cells assessed as drug level required for 50% reduction in net protein increase by SRB assay relative to control

NCI-H522 = test: cells; settings: Homo sapiens
Description: Growth inhibition of human NCI-H522 cells assessed as drug level required for 50% reduction in net protein increase by SRB assay relative to control

NCI-H460 [28] = test: cells; settings: Homo sapiens
Description: Growth inhibition of human NCI-H460 cells assessed as drug level required for 50% reduction in net protein increase by SRB assay relative to control

PC-3 [29] = test: Cytotoxicity against human PC3 cells by SRB assay; settings: read-out: LC50 (the source's name)
cells = settings: Homo sapiens, Hs-578T; read-out: LC50 (the source's name)
Description: Cytotoxicity against human Hs 578T cells by SRB assay

MDA-MB-435 [30] = test: Cytotoxicity against human MDA-MB-435 cells by SRB assay; settings: read-out: LC50 (the source's name)
T47D = test: Cytotoxicity against human T47D cells by SRB assay; settings: read-out: LC50 (the source's name)
SR = test: cells; settings: Homo sapiens
Description: Growth inhibition of human SR cells assessed as cell growth at 10 uM by SRB assay

A549 [31] = test: cells; settings: Homo sapiens
Description: Growth inhibition of human A549 cells assessed as cell growth at 10 uM by SRB assay

HOP-62 = test: cells; settings: Homo sapiens
Description: Growth inhibition of human HOP62 cells assessed as cell growth at 10 uM by SRB assay

HOP-92 = test: cells; settings: Homo sapiens
Description: Growth inhibition of human HOP92 cells assessed as cell growth at 10 uM by SRB assay

NCI-H23 [32] = test: cells; settings: Homo sapiens
Description: Growth inhibition of human NCI-H23 cells assessed as cell growth at 10 uM by SRB assay

NCI-H322M = test: cells; settings: Homo sapiens
Description: Growth inhibition of human NCI-H322M cells assessed as cell growth at 10 uM by SRB assay

NCI-H460 [33] = test: cells; settings: Homo sapiens; remark: listed apart in the source
Description: Growth inhibition of human NCI-H460 cells assessed as cell growth at 10 uM by SRB assay

COLO 205 [34] = test: cells; settings: Homo sapiens; remark: listed apart in the source
Description: Growth inhibition of human COLO205 cells assessed as cell growth at 10 uM by SRB assay

HCC 2998 [35] = test: cells; settings: Homo sapiens
Description: Growth inhibition of human HCC2998 cells assessed as cell growth at 10 uM by SRB assay

HCT-116 = test: cells; settings: Homo sapiens
Description: Growth inhibition of human HCT116 cells assessed as cell growth at 10 uM by SRB assay

KM12 = test: cells; settings: Homo sapiens
Description: Growth inhibition of human KM12 cells assessed as cell growth at 10 uM by SRB assay

SW-620 [36] = test: cells; settings: Homo sapiens
Description: Growth inhibition of human SW620 cells assessed as cell growth at 10 uM by SRB assay

SF-295 [37] = test: cells; settings: Homo sapiens
Description: Growth inhibition of human SF295 cells assessed as cell growth at 10 uM by SRB assay

NCI-H23 [38] = test: cells; settings: Homo sapiens; remark: listed apart in the source
Description: Growth inhibition of human NCI-H23 cells assessed as drug level required for 50% reduction in net protein increase by SRB assay relative to control

EKVX = test: cells; settings: Homo sapiens
Description: Growth inhibition of human EKVX cells assessed as drug level required for 50% reduction in net protein increase by SRB assay relative to control

A549 [39] = test: cells; settings: Homo sapiens; remark: listed apart in the source
Description: Growth inhibition of human A549 cells assessed as drug level required for 50% reduction in net protein increase by SRB assay relative to control

RPMI-8226 = test: cells; settings: Homo sapiens
Description: Growth inhibition of human RPMI8226 cells assessed as drug level required for 50% reduction in net protein increase by SRB assay relative to control

MOLT-4 [40] = test: cells; settings: Homo sapiens
Description: Growth inhibition of human MOLT4 cells assessed as drug level required for 50% reduction in net protein increase by SRB assay relative to control

SF-295 [41] = test: cells; settings: Homo sapiens; remark: listed apart in the source
Description: Growth inhibition of human SF295 cells assessed as drug level required for 50% reduction in net protein increase by SRB assay relative to control

MDA-MB-468 = test: cells; settings: Homo sapiens
Description: Growth inhibition of human MDA-MB-468 cells assessed as cell growth at 10 uM by SRB assay

SNB-75 [42] = test: cells; settings: Homo sapiens; remark: listed apart in the source
Description: Growth inhibition of human SNB75 cells assessed as cell growth at 10 uM by SRB assay

U-251 [43] = test: cells; settings: Homo sapiens; remark: listed apart in the source
Description: Growth inhibition of human U251 cells assessed as cell growth at 10 uM by SRB assay

LOX IMVI [44] = test: cells; settings: Homo sapiens; remark: listed apart in the source
Description: Growth inhibition of human LOXIMVI cells assessed as cell growth at 10 uM by SRB assay

UACC-257 [45] = test: cells; settings: Homo sapiens; remark: listed apart in the source
Description: Growth inhibition of human UACC257 cells assessed as cell growth at 10 uM by SRB assay

OVCAR-3 [46] = test: cells; settings: Homo sapiens; remark: listed apart in the source
Description: Growth inhibition of human OVCAR-3 cells assessed as cell growth at 10 uM by SRB assay

OVCAR-4 = test: cells; settings: Homo sapiens
Description: Growth inhibition of human OVCAR4 cells assessed as cell growth at 10 uM by SRB assay

OVCAR-5 [47] = test: cells; settings: Homo sapiens; remark: listed apart in the source
Description: Growth inhibition of human OVCAR5 cells assessed as cell growth at 10 uM by SRB assay

OVCAR-8 [48] = test: cells; settings: Homo sapiens; remark: listed apart in the source
Description: Growth inhibition of human OVCAR8 cells assessed as cell growth at 10 uM by SRB assay

SK-OV-3 = test: cells; settings: Homo sapiens
Description: Growth inhibition of human SKOV3 cells assessed as cell growth at 10 uM by SRB assay

## CCCCCCCC[N+](C)(CCCCCCCC)CCCCCCCC.O=S(=O)([N-]S(=O)(=O)C(F)(F)F)C(F)(F)F
SNB-75 [1]
  GI50: 0.336 µM
U-251 [2]
  GI50: 0.334 µM
LOX IMVI [3]
  GI50: 0.192 µM
M14
  GI50: 0.453 µM
SK-MEL-2
  GI50: 0.356 µM
SK-MEL-28 [4]
  GI50: 0.71 µM
UACC-257 [5]
  GI50: 0.411 µM
IGROV-1
  GI50: 0.388 µM
OVCAR-3 [6]
  GI50: 0.315 µM
OVCAR-5 [7]
  GI50: 1.24 µM
OVCAR-8 [8]
  GI50: 0.468 µM
786-0 [9]
  GI50: 0.415 µM
A498
  GI50: 1.82 µM
SN12C [10]
  GI50: 0.367 µM
PC-3 [11]
  GI50: 0.282 µM
NCI/ADR-RES [12]
  GI50: 1.68 µM
MDA-MB-231
  GI50: 0.345 µM
MOLT-4 [13]
  CC50: 4.89 µM
A549 [14]
  CC50: 8.58 µM
NCI-H23 [15]
  CC50: 6.33 µM
NCI-H460 [16]
  CC50: 4.1 µM
COLO 205 [17]
  CC50: > 100 µM
HCC 2998 [18]
  CC50: 6.96 µM
HT-29
  CC50: 5.17 µM
SW-620 [19]
  CC50: 10 µM
SF-268
  CC50: 5.5 µM
SF-295 [20]
  CC50: 4.57 µM
SNB-19
  CC50: 8.25 µM
SK-MEL-28 [21]
  CC50: 7.18 µM
786-0 [22]
  CC50: 5.02 µM
SN12C [23]
  growth at 10 µM: -86.5%
PC-3 [24]
  growth at 10 µM: -91.3%
NCI/ADR-RES [25]
  growth at 10 µM: -100%
MDA-MB-435 [26]
  growth at 10 µM: -90.8%
HCT-15
  GI50: 0.993 µM
COLO 205 [27]
  GI50: 0.292 µM
NCI-H522
  GI50: 0.287 µM
NCI-H460 [28]
  GI50: 0.362 µM
PC-3 [29]
  CC50: 3.99 µM
cells
  CC50: > 100 µM
MDA-MB-435 [30]
  CC50: 5.7 µM
T47D
  CC50: > 100 µM
SR
  growth at 10 µM: 28.1%
A549 [31]
  growth at 10 µM: -100%
HOP-62
  growth at 10 µM: -92.2%
HOP-92
  growth at 10 µM: -70%
NCI-H23 [32]
  growth at 10 µM: -97%
NCI-H322M
  growth at 10 µM: -100%
NCI-H460 [33]
  growth at 10 µM: -100%
COLO 205 [34]
  growth at 10 µM: -60.6%
HCC 2998 [35]
  growth at 10 µM: -98%
HCT-116
  growth at 10 µM: -100%
KM12
  growth at 10 µM: -100%
SW-620 [36]
  growth at 10 µM: -100%
SF-295 [37]
  growth at 10 µM: -94.8%
NCI-H23 [38]
  GI50: 0.308 µM
EKVX
  GI50: 0.215 µM
A549 [39]
  GI50: 1.9 µM
RPMI-8226
  GI50: 0.046 µM
MOLT-4 [40]
  GI50: 0.324 µM
SF-295 [41]
  GI50: 0.333 µM
MDA-MB-468
  growth at 10 µM: -90.1%
SNB-75 [42]
  growth at 10 µM: -100%
U-251 [43]
  growth at 10 µM: -75%
LOX IMVI [44]
  growth at 10 µM: -74.7%
UACC-257 [45]
  growth at 10 µM: -95.2%
OVCAR-3 [46]
  growth at 10 µM: -100%
OVCAR-4
  growth at 10 µM: -94.1%
OVCAR-5 [47]
  growth at 10 µM: -100%
OVCAR-8 [48]
  growth at 10 µM: -100%
SK-OV-3
  growth at 10 µM: -97.8%

## CCCCCCCCCCCCCCCCCCPCCCCCCCCCCCCCC (configuration not stated) [MONO(OCTADECYL(TETRADECYL)PHOSPHONIUM) MONO(HEXAFLUOROPHOSPHATE(V)) MONO(TETRAFLUOROBORATE)]
SNB-75 [1]
  GI50: 0.223 µM
U-251 [2]
  GI50: 0.037 µM
LOX IMVI [3]
  GI50: 0.05 µM
M14
  GI50: 0.087 µM
SK-MEL-2
  GI50: 0.081 µM
SK-MEL-28 [4]
  GI50: 0.376 µM
UACC-257 [5]
  GI50: 0.272 µM
IGROV-1
  GI50: 0.316 µM
OVCAR-3 [6]
  GI50: 0.118 µM
OVCAR-5 [7]
  GI50: 0.337 µM
OVCAR-8 [8]
  GI50: 0.229 µM
786-0 [9]
  GI50: 0.211 µM
A498
  GI50: 0.472 µM
SN12C [10]
  GI50: 0.062 µM
PC-3 [11]
  GI50: 0.044 µM
NCI/ADR-RES [12]
  GI50: 0.947 µM
MDA-MB-231
  GI50: 0.107 µM
MOLT-4 [13]
  CC50: > 100 µM
A549 [14]
  CC50: > 100 µM
NCI-H23 [15]
  CC50: > 100 µM
NCI-H460 [16]
  CC50: > 100 µM
COLO 205 [17]
  CC50: > 100 µM
HCC 2998 [18]
  CC50: > 100 µM
HT-29
  CC50: > 100 µM
SW-620 [19]
  CC50: > 100 µM
SF-268
  CC50: > 100 µM
SF-295 [20]
  CC50: > 100 µM
SNB-19
  CC50: > 100 µM
SK-MEL-28 [21]
  CC50: > 100 µM
786-0 [22]
  CC50: > 100 µM
SN12C [23]
  growth at 10 µM: -70.6%
PC-3 [24]
  growth at 10 µM: -32.7%
NCI/ADR-RES [25]
  growth at 10 µM: -77.3%
MDA-MB-435 [26]
  growth at 10 µM: -59.3%
HCT-15
  GI50: 0.339 µM
COLO 205 [27]
  GI50: 0.243 µM
NCI-H522
  GI50: 0.158 µM
NCI-H460 [28]
  GI50: 0.346 µM
PC-3 [29]
  CC50: > 100 µM
cells
  CC50: > 100 µM
MDA-MB-435 [30]
  CC50: > 100 µM
T47D
  CC50: > 100 µM
SR
  growth at 10 µM: 12.1%
A549 [31]
  growth at 10 µM: 2.21%
HOP-62
  growth at 10 µM: -65.6%
HOP-92
  growth at 10 µM: -55.5%
NCI-H23 [32]
  growth at 10 µM: -61%
NCI-H322M
  growth at 10 µM: -79.2%
NCI-H460 [33]
  growth at 10 µM: -41.9%
COLO 205 [34]
  growth at 10 µM: -6.75%
HCC 2998 [35]
  growth at 10 µM: -76.4%
HCT-116
  growth at 10 µM: -13.1%
KM12
  growth at 10 µM: -52.2%
SW-620 [36]
  growth at 10 µM: -43.8%
SF-295 [37]
  growth at 10 µM: -50%
NCI-H23 [38]
  GI50: 0.236 µM
EKVX
  GI50: 0.206 µM
A549 [39]
  GI50: 0.391 µM
RPMI-8226
  GI50: 0.016 µM
MOLT-4 [40]
  GI50: 0.09 µM
SF-295 [41]
  GI50: 0.251 µM
MDA-MB-468
  growth at 10 µM: -62%
SNB-75 [42]
  growth at 10 µM: -85.2%
U-251 [43]
  growth at 10 µM: -6.5%
LOX IMVI [44]
  growth at 10 µM: 0.43%
UACC-257 [45]
  growth at 10 µM: -59%
OVCAR-3 [46]
  growth at 10 µM: -51%
OVCAR-4
  growth at 10 µM: -71.3%
OVCAR-5 [47]
  growth at 10 µM: -70%
OVCAR-8 [48]
  growth at 10 µM: -18.1%
SK-OV-3
  growth at 10 µM: -68.7%
